The source of these data is US20210179636A1, “ANTIBACTERIAL COMPOUNDS” (priority 2016, published 2021).

Values after ≈ are worked out from the molar mass of the structure shown. Read-outs that look alike come from different tables or passages of the source.

Data set [1] relates to Staphylococcus aureus ATCC 29213. Description: MIC, broth microdilution (CLSI). In kind it is cell-based. Particulars: S. aureus ATCC 29213, 16-20 h, mode of three experiments.
Data set [2] concerns Escherichia coli ATCC 25922. Nature of the data set: MIC, broth microdilution (CLSI). Particulars: E. coli ATCC 25922, 16-20 h, mode of three experiments. In kind it is cell-based.
Data set [3] has as its system Enterobacter cloacae NCTC 13406. Nature of the data set: MIC, broth microdilution (CLSI). The note with it: E. cloacae NCTC 13406, 16-20 h, mode of three experiments. In kind it is cell-based.
For data set [4], the system named is Streptococcus pneumoniae ATCC 49619. Description: MIC, broth microdilution (CLSI). The note with it: S. pneumoniae ATCC 49619, 16-20 h, mode of three experiments. In kind it is cell-based.
Data set [5] concerns Pseudomonas aeruginosa ATCC 27853. Description: MIC, broth microdilution (CLSI). The format is cell-based. Particulars: P. aeruginosa ATCC 27853, 16-20 h, mode of three experiments.
Data set [6] concerns Haemophilus influenzae ATCC 49247. Description: MIC, broth microdilution (CLSI). In kind it is cell-based. Particulars: H. influenzae ATCC 49247, 16-20 h, mode of three experiments.
For data set [7], the system named is Klebsiella pneumoniae ATCC 700603. Nature of the data set: MIC, broth microdilution (CLSI). In kind it is cell-based. Particulars: K. pneumoniae ATCC 700603, 16-20 h, mode of three experiments.
The test system of another data set is HepG2 ATCC HB-8065. Nature of the data set: Human cell viability assay (CellTiter-Glo). The format is cell-based. The note with it: for IC50: Homo sapiens; for IC50 / IC50 HepG2: HepG2 cell viability, 24 h with compound, range 1-128 μg/mL. As for the experimental part: Compounds are assessed for potential non-specific cytotoxic effects against a human hepatic cell line (HepG2 ATCC HB-8065). HepG2 cells are seeded at 20,000 cells/well in 96-well microtitre plates in minimal essential medium (MEM) supplemented with a final concentration of 10% FBS and 1 mM sodium pyruvate. After 24 h compound dilutions are prepared in Dulbecco's minimum essential media (DMEM) supplemented with final concentrations of 0.001% FBS, 0.3% bovine albumin and 0.02% HEPES and added to cells. Compounds are tested in two-fold serial dilutions over a final concentration range of 1-128 μg/mL in a final DMSO concentration of 1% vol/vol. Chlorpromazine is used as a positive control. Cells are incubated with compound at 37° C. and 5% CO2 for a further 24 h, after which time the CellTiter-Glo reagent (Promega) is added. Luminescence is measured on a BMG Omega plate reader. Data are analysed using GraphPad Prism software to determine the concentration of compound that inhibits cell viability by fifty percent (IC50).

Data set [8] concerns Mycobacterium smegmatis ATCC 19420. Description: MIC, broth microdilution (CLSI). The format is cell-based. Particulars: M. smegmatis ATCC 19420, 16-20 h, mode of three experiments.
Data set [9] relates to Acinetobacter baumannii NCTC 13420. Description: MIC, broth microdilution (CLSI). Particulars: A. baumannii NCTC 13420, 16-20 h, mode of three experiments. In kind it is cell-based.
In data set [10] the test system is Acinetobacter baumannii ATCC 19606. Description: MIC, broth microdilution (CLSI). In kind it is cell-based. Particulars: A. baumannii ATCC 19606, 16-20 h, mode of three experiments.
A further data set concerns E. coli MG1655 S83L. In kind it is cell-based, Escherichia coli. Particulars: compared to the isogenic parent strain E. coli MG1655; S83L mutation on DNA gyrase subunit GyrA.
For a further data set, the system named is E. coli MG1655 D87G. In kind it is cell-based, Escherichia coli. The note with it: compared to the isogenic parent strain E. coli MG1655; D87G mutation on DNA gyrase subunit GyrA.
A further data set concerns E. coli MG1655 WT. Nature of the data set: MIC, broth microdilution (CLSI). In kind it is cell-based, Escherichia coli.
The test system of another data set is E. coli NCTC 13476. Nature of the data set: MIC, broth microdilution (CLSI). The format is cell-based, Escherichia coli. Particulars: mode of three experiments.
The next data set has as its system E. coli ATCC BAA-2452. Nature of the data set: MIC, broth microdilution (CLSI). In kind it is cell-based, Escherichia coli. Particulars: 16-20 h, mode of three experiments.
The mark [11] stands for this setting: Staphylococcus aureus, ATCC29213, read-out: MIC.
Setting [12] is: Escherichia coli, ATCC25922, read-out: MIC.
[13] abbreviates: Enterobacter cloacae, NCTC13406, read-out: MIC.
Where [14] appears, read: Streptococcus pneumoniae, ATCC49619, read-out: MIC.
[15] abbreviates: Pseudomonas aeruginosa, ATCC27853, read-out: MIC.
Setting [16] is: Haemophilus influenzae, ATCC49247, read-out: MIC.
[17] abbreviates: Klebsiella pneumoniae, ATCC700603, read-out: MIC.
[18] abbreviates: Acinetobacter baumannii, NCTC13420, read-out: MIC.
The mark [19] stands for this setting: Acinetobacter baumannii, ATCC19606, read-out: MIC.
[20] abbreviates: Escherichia coli, NCTC13476, 16-20 h, read-out: MIC.
[21] abbreviates: Escherichia coli, read-out: MIC.

As for `COc1ccc2ccc(=O)n(CCN3C[C@@H]4CN(c5ccc6c(n5)NC(=O)CO6)C(=O)O[C@H]4C3)c2n1` (relative stereo) [Compound 1], the MIC is below 1 µg/mL in data set [1] (setting [11]); below 1 µg/mL in data set [2] (setting [12]); 1 to 10 µg/mL (≈ 2.03 to 20.3 µM) in [3] (setting [13]); below 1 µg/mL in data set [4] (setting [14]); 1 to 10 µg/mL (≈ 2.03 to 20.3 µM) in data set [5] (setting [15]); below 1 µg/mL in data set [6] (setting [16]). The MIC in data set [7] (setting [17]) was 10 to 100 µg/mL (≈ 20.3 to 203 µM); in data set [8] (Mycolicibacterium smegmatis, ATCC19420, read-out: MIC), below 1 µg/mL; in data set [9] (setting [18]), below 1 µg/mL. Also, in the data set on HepG2 ATCC HB-8065, the IC50 was above 100 µg/mL.
On to `O=C1COc2ccc(N3C[C@@H]4CN(CCn5c(=O)ccc6ccc(Oc7cccnc7)nc65)C[C@@H]4OC3=O)nc2N1` (relative stereo) [Compound 7, rel-1-{2-[(4aS*,7aR*-2-oxo-3-{3-oxo-2H,3H,4H-pyrido[3,2-b][1,4]oxazin-6-yl}-octahydropyrrolo[3,4-e][1,3]oxazin-6-yl]ethyl}-7-(pyridin-3-yloxy)-1,2-dihydro-1,8-naphthyridin-2-one], for which the MIC entry was “A (an MIC (in μg/mL) of less or equal to 1 is assigned the letter A)” in data set [1]; “B (a MIC of from 1 to 10 is assigned the letter B)” in [2]; “C (a MIC of from 10 to 100 is assigned the letter C)” in [3]; “A (an MIC (in μg/mL) of less or equal to 1 is assigned the letter A)” in data set [4]; “C (a MIC of from 10 to 100 is assigned the letter C)” in [5]; “A (an MIC (in μg/mL) of less or equal to 1 is assigned the letter A)” in data set [6]. Also, the MIC result in data set [7] is on record as “C (a MIC of from 10 to 100 is assigned the letter C)”; in data set [8], “A (an MIC (in μg/mL) of less or equal to 1 is assigned the letter A)”; in data set [9], “B (a MIC of from 1 to 10 is assigned the letter B)”. In addition, in the data set with HepG2 ATCC HB-8065, the “IC50 HepG2” value is recorded as “A (an IC50 of over 100 is assigned the letter A)”.
For `N#Cc1ccc2ccc(=O)n(CCN3C[C@H]4CN(c5ccc6c(n5)NC(=O)CO6)C(=O)O[C@H]4C3)c2c1` (relative stereo) [Compound 10, rel-1-{2-[(4aS*,7aR*-2-oxo-3-{3-oxo-2H,3H,4H-pyrido[3,2-b][1,4]oxazin-6-yl}-octahydropyrrolo[3,4-e][1,3]oxazin-6-yl]ethyl}-2-oxo-1,2-dihydroquinoline-7-carbonitrile], the MIC result in [10] was “A (an MIC (in μg/mL) of less or equal to 1 is assigned the letter A)”; against E. coli MG1655 WT (E. coli MG1655 WT, 16-20 h, mode of three experiments), “A (an MIC (in μg/mL) of less or equal to 1 is assigned the letter A)”; in data set [1], “A (an MIC (in μg/mL) of less or equal to 1 is assigned the letter A)”; in [2] it was “A (an MIC (in μg/mL) of less or equal to 1 is assigned the letter A)”; in data set [3], “A (an MIC (in μg/mL) of less or equal to 1 is assigned the letter A)”; in data set [4] it was “A (an MIC (in μg/mL) of less or equal to 1 is assigned the letter A)”. Further, the MIC result in data set [5] is on record as “B (a MIC of from 1 to 10 is assigned the letter B)”; in [6], “A (an MIC (in μg/mL) of less or equal to 1 is assigned the letter A)”; in data set [7], “B (a MIC of from 1 to 10 is assigned the letter B)”; against E. coli NCTC 13476 (16-20 h), “B (a MIC of from 1 to 10 is assigned the letter B)”; against E. coli ATCC BAA-2452 it was “A (an MIC (in μg/mL) of less or equal to 1 is assigned the letter A)”; in [9] it was “B (a MIC of from 1 to 10 is assigned the letter B)”. In addition, the “Fold increase in MIC against E. coli MG1655 S83L” value with E. coli MG1655 S83L was 1 fold. In the data set with E. coli MG1655 D87G, the “Fold increase in MIC against E. coli MG1655 D87G” value is listed as 1 fold. Besides, the “toxicity against HepG2 human hepatic cell line (in words)” value with HepG2 ATCC HB-8065 is reported as “no detectable toxicity”. In addition, the “IC50 HepG2” value with HepG2 ATCC HB-8065 is listed as “A (an IC50 of over 100 is assigned the letter A)”.
For the molecule `N#Cc1ccc2ccc(=O)n(CCN3CC4CN(c5ccc6c(n5)NC(=O)CO6)C(=O)O[C@@H]4C3)c2c1` (stereo in doubt) [Compound 12, 1-{2-[(4aR,7aS)-2-oxo-3-{3-oxo-2H,3H,4H-pyrido[3,2-b][1,4]oxazin-6-yl}-octahydropyrrolo[3,4-e][1,3]oxazin-6-yl]ethyl}-2-oxo-1,2-dihydroquinoline-7-carbonitrile], the MIC is 1 to 10 µg/mL (≈ 2.06 to 20.6 µM) in data set [10] (setting [19]); below 1 µg/mL with E. coli MG1655 WT (Escherichia coli, MG1655); below 1 µg/mL in [1] (setting [11]); below 1 µg/mL in [2] (setting [12]); 1 to 10 µg/mL (≈ 2.06 to 20.6 µM) in [3] (setting [13]); below 1 µg/mL in data set [4] (setting [14]). For the same molecule, the MIC in data set [5] (setting [15]) is 1 to 10 µg/mL (≈ 2.06 to 20.6 µM); in data set [6] (setting [16]), below 1 µg/mL; in [7] (setting [17]), 10 to 100 µg/mL (≈ 20.6 to 206 µM); in the data set with E. coli NCTC 13476 (setting [20]) it was 1 to 10 µg/mL (≈ 2.06 to 20.6 µM); with E. coli ATCC BAA-2452 (setting [21]) it was below 1 µg/mL; in data set [9] (setting [18]), below 1 µg/mL. The “Fold increase in MIC against E. coli MG1655 S83L” value in the data set with E. coli MG1655 S83L is 1 fold. The “Fold increase in MIC against E. coli MG1655 D87G” value in the data set with E. coli MG1655 D87G is listed as 1 fold. In the data set on HepG2 ATCC HB-8065, the IC50 was above 100 µg/mL.
In the case of `N#Cc1ccc2ccc(=O)n(CCN3CC4CN(c5ccc6c(n5)NC(=O)CO6)C(=O)O[C@H]4C3)c2c1` (stereo in doubt) [Compound 17, 1-{2-[(4aS,7aR)-2-oxo-3-{3-oxo-2H,3H,4H-pyrido[3,2-b][1,4]oxazin-6-yl}-octahydropyrrolo[3,4-e][1,3]oxazin-6-yl]ethyl}-2-oxo-1,2-dihydroquinoline-7-carbonitrile], the MIC in [10] (setting [19]) is 1 to 10 µg/mL (≈ 2.06 to 20.6 µM); with E. coli MG1655 WT (Escherichia coli, MG1655), below 1 µg/mL; in data set [1] (setting [11]), below 1 µg/mL; in data set [2] (setting [12]), below 1 µg/mL; in data set [3] (setting [13]) it was 1 to 10 µg/mL (≈ 2.06 to 20.6 µM); in [4] (setting [14]) it was below 1 µg/mL. For the same molecule, the MIC is 1 to 10 µg/mL (≈ 2.06 to 20.6 µM) in data set [5] (setting [15]); below 1 µg/mL in [6] (setting [16]); 10 to 100 µg/mL (≈ 20.6 to 206 µM) in [7] (setting [17]); 1 to 10 µg/mL (≈ 2.06 to 20.6 µM) in the data set on E. coli NCTC 13476 (setting [20]); 1 to 10 µg/mL (≈ 2.06 to 20.6 µM) in the data set on E. coli ATCC BAA-2452 (setting [21]); below 1 µg/mL in data set [9] (setting [18]). Also, the “Fold increase in MIC against E. coli MG1655 S83L” value with E. coli MG1655 S83L worked out at 0.5 fold. Moreover, in the data set with E. coli MG1655 D87G, the “Fold increase in MIC against E. coli MG1655 D87G” value came out at 2 fold. In addition, in the data set with HepG2 ATCC HB-8065, the IC50 was above 100 µg/mL.
